# Marks after values point to notes of the source that are not given here.
# How the values were obtained:
# [1] = test system: rat 9L gliosarcomas; design: method as in PMID 21559510; conditions: cited from earlier work
# [2] = test system: human U251 glioma xenografts; design: method as in PMID 21559510; conditions: human U251 glioma xenografts ref 12; cited from earlier work
# [3] = cited from earlier work
# [4] = test system: primary acute myeloid leukemia (AML) cells; conditions: cited from earlier work
# [5] = test system: intracerebral C6 glioma
# Protocol: Adult Wistar rats (120–180 g, age 4–8 weeks) were obtained from the Animal Center at the Academy of Military Medical Sciences and had animal certification of SCXK (army) 2012–001. Animals were housed in collective cages at a temperature of 23 ± 2°C and relative humidity of 40% to 70%. All rats had free access to food and water.
# Intracerebral tumor implantations were performed according to the following procedures. C6 tumors were maintained as subcutaneous tumors in rats. Subcutaneous masses were excised, dissociated, and mixed with matrigel on ice (BD Biosciences) at a ratio of 1:1. After removing of the hair on the skull, a small midline incision in the scalp was gently made under anesthesia with 2% sodium pentobarbital at a dose of 40mg/kg. C6 cells in matrigel (0.1 mL of the cell/matrigel mixture containing 10^8 cells /mL) were carefully injected into the right frontal cortex by a special 16-gauge stainless steel needle with 5 mm needle tubing. Implantation coordinates were determined from Swanson’s Stereotaxic Atlas guidelines (1992): 1.0 mm anterior and 3.0 mm lateral to bregma, at a depth of 5.0 mm from the brain surface. […] The syringe was slowly retracted, the hole was sealed with bone wax, and the incision was sutured under aseptic conditions. […] Then 0.015 mg/kg buprenorphine (s.c.) was administered to relieve the pain. The rats were replaced in cages and allowed to recover from anesthesia.
# Rats were divided into the following 5 treatment groups 24 h after surgery (n = 9 rats /group) according to rat weight: 1) vehicle (normal saline: NS); 2) vincristine (VCR) at 100μg/kg; 3) DMAMCL at 25 mg/kg; 4) DMAMCL at 50 mg/kg; and 5) DMAMCL at 100 mg/kg. All drugs were prepared in NS and administered once daily for 21 days. DMAMCL was administered orally, and VCR was injected into the caudal vein. Rats were weighed and monitored for signs of mortality daily. Twenty one days into the treatment, rats were euthanized via CO2 asphyxiation under deep anesthesia by sodium pentobarbital. Brains and tumors were separated from the cerebellum and medulla oblongata, and weighed, photographed, fixed in formalin, and embedded in paraffin for sectioning. The tumor: brain weight ratio was assessed to observe the degree of tumor cell growth in brain. Serial sections (5 μm in thickness) were stained by hematoxylin and eosin (HE).
# [6] = test system: intracerebral C6 glioma; experiment: Survival time analysis in C6 intracerebral glioma rats; assay type: in vivo, Wistar rats; conditions: VCR, treated daily for 21 days
# Protocol: C6 tumors were maintained as subcutaneous tumors in rats.
# The survival time analyses were performed in C6 intracerebral glioma rats. […] Animals were monitored daily for signs of mortality and weight. Rats were sacrificed when a loss of mobility, lethargy, hemorrhaging around the eyes, or a hunched posture was observed as previously described. The observation time was terminated when all the vehicle rats died. Then the other rats were euthanized by CO2 asphyxiation.
# [7] = test system: rat 9L gliosarcoma; design: method as in PMID 21727209; conditions: direct injection into the brain using biodegradable beads, increased from 12.5 days ref 26; cited from earlier work
# [8] = VCR 100μg/kg caudal vein once daily for 21 days
smiles,measurement,setting,value
C=CCc1ccc(O)c(-c2ccc(O)c(CC=C)c2)c1 [Honokiol],Increase of survival compared to controls,[1],5 days
same,Reduction of tumor volume,[1]; rat 9L gliosarcomas ref 12,52.77%
same,Reduction of tumor volume,[2],50.21%
"C=C1C(=O)O[C@H]2[C@H]1CCC(C)=C1CC[C@@](C)(O)[C@@H]12 [MCL, micheliolide]",Stability compared with PTL,[3],more stable than PTL
same,Number of colony-forming units of primary AML cells,[4],greatly reduced the number of colony-forming units
"C=C1C(=O)O[C@H]2[C@H]1CC/C(C)=C/CC[C@@]1(C)O[C@@H]21 [PTL, Parthenolide]",Stability,[3]; acidic and basic conditions ref 15,unstable under both acidic and basic conditions
"CC[C@]1(O)C[C@H]2CN(CCc3c([nH]c4ccccc34)[C@@](C(=O)OC)(c3cc4c(cc3OC)N(C=O)[C@H]3[C@@](O)(C(=O)OC)[C@H](OC(C)=O)[C@]5(CC)C=CCN6CC[C@]43[C@@H]65)C2)C1 [VCR, vincristine, reference compound]",Deaths during the 21-day study,[5]; VCR 100μg/kg caudal vein once daily,One rat died on day 18
same,Inhibition (percent decrease in tumor weight compared to the vehicle group),[5]; [8],81.6%
same,Tumor weight,[5]; [8],0.13 ± 0.07 g
same,Tumor/brain,[5]; [8],6.5 ± 2.6 %
same,Histopathology of brain tissue (HE),"[5]; VCR 100μg/kg, 21 days",appeared similar to normal brain tissues
same,Median survival of deceased animals,[6],24 days
same,Time of death End,[6],57 days
same,Time of death Start,[6],23 days
same,Survival (# of rats) End,"[6]; 63 days, n = 10",7 # of rats
same,Survival,[6]; at 63 days,70 ^*** %
same,Mean survival,[6]; observation 63 days,54.5 ± 16.4 days
same,Median survival,[6]; observation 63 days,63 days
"CO[C@H]1C[C@@H]2CC[C@@H](C)[C@@](O)(O2)C(=O)C(=O)N2CCCC[C@H]2C(=O)O[C@H]([C@H](C)C[C@@H]2CC[C@@H](O)[C@H](OC)C2)CC(=O)[C@H](C)/C=C(\C)[C@@H](O)[C@@H](OC)C(=O)[C@H](C)C[C@H](C)/C=C/C=C/C=C/1C [rapamycin, Rapamycin]",Survival,[7],29 days
